Holding throughout (assay): NCI tumour cell line growth inhibition, 48 h
Test [1] concerns HOP-62.
For test [2], the system named is EKVX.
For test [3], the system named is LOX IMVI.
For test [4], the system named is HT-29.
Test [5] deals with IGROV-1.
The test system of test [6] is RPMI-8226.
The test system of test [7] is SF-268.
Test [8] has as its system UACC-62.
For test [9], the system named is UACC-257.
Test [10] deals with HCT-116.
For test [11], the system named is SF-539.
Test [12] has as its system SW-620.
The test system of test [13] is SR.
Test [14] relates to SNB-19.
For test [15], the system named is SN12C.
Test [16] relates to NCI-H23.
For test [17], the system named is RXF 393.
For test [18], the system named is OVCAR-8.
Test [19] relates to NCI-H522.
The subject of test [20] is SK-MEL-5.

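Tested at 5 concentrations; 48 h exposure; 96-well plates; endpoints linearly interpolated, else capped at highest concentration. GI50 = concentration required for 50% inhibition of growth.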 Calls of active or inactive are those of the source. No stated cut-off is given here; in the data, active = GI50 up to about 1.1 µM and inactive = higher.

These results are taken from ChEMBL document CHEMBL1201862, “PubChem BioAssay data set” (2004).

As to `Nc1nc2c(ncn2Cc2ccc(CO)cc2)c(=O)[nH]1`, the GI50 in test [1], in [2], in test [3], in test [4], in test [5] and in test [6] was > 100 µM (inactive) in each case. Further, the GI50 in test [7], in test [8], in [9], in test [10], in [11] and in test [12] was > 100 µM (inactive) throughout. Besides, the GI50 was 95.5 µM (inactive) in test [13]; > 100 µM (inactive) in [14]; > 100 µM (inactive) in [15]; > 100 µM (inactive) in test [16]; > 100 µM (inactive) in test [17]; > 100 µM (inactive) in test [18]. In addition, the GI50 in test [19] and in test [20] was > 100 µM (inactive) each time.
On to `COc1cc(OC)nc(NC(=O)NS(=O)(=O)c2cccc3ncn(C)c(=O)c23)n1`, for which the GI50 in test [1], in test [2], in test [3], in [4], in test [5] and in test [6] was > 100 µM (inactive) throughout. The GI50 in [7], in [8], in [9], in test [10], in [11] and in [12] was > 100 µM (inactive) in each case. Besides, the GI50 in test [13], in test [14], in test [15], in test [16], in [17] and in [18] was > 100 µM (inactive) throughout. The GI50 in [19] and in test [20] was > 100 µM (inactive) in each case.
Consider `O=C1OC(c2ccccc2)=N/C1=C/NC(Cc1c[nH]cn1)C(=O)O` (stereo not given), for which the GI50 in test [1], in test [2], in test [3], in test [4], in test [5] and in [6] was > 100 µM (inactive) in each case. Also, the GI50 in test [7], in test [8], in [9], in test [10], in [11] and in [12] was > 100 µM (inactive) each time. Also, the GI50 in test [13], in test [14], in [15], in test [16], in test [17] and in [18] was > 100 µM (inactive) throughout. For the same molecule, the GI50 in [19] and in test [20] was > 100 µM (inactive) each time.
Turning to `CCOC(=O)c1c(C)n(-c2ccc(C)cc2)c2c1cc(O)c1[nH]c3c(c12)CCCC3`, the GI50 in test [1] was 27.9 µM (inactive); in test [2], 26.1 µM (inactive); in test [3], 14.4 µM (inactive); in test [4], 14.9 µM (inactive); in test [5] it was 13.8 µM (inactive); in test [6], 4.07 µM (inactive). The GI50 is 17.5 µM (inactive) in test [7]; 17.3 µM (inactive) in [8]; 21.2 µM (inactive) in test [9]; 21.8 µM (inactive) in test [10]; 15.7 µM (inactive) in test [11]; 17.6 µM (inactive) in [12]. Moreover, the GI50 in test [13] is 0.0566 µM (active); in test [14], 19.4 µM (inactive); in [15], 27.5 µM (inactive); in test [16], 20.3 µM (inactive); in test [17], 12 µM (inactive); in test [18] it was 22.4 µM (inactive). Moreover, the GI50 in [19] is 12.7 µM (inactive); in [20], 11.9 µM (inactive).
As for `COc1ccc2c(c1)c(Cc1c(C)n(C)c3ccc(OC)cc13)c(C)n2C`, the GI50 in [1], in test [2], in test [3], in test [4], in test [5] and in [6] was > 100 µM (inactive) each time. The GI50 in test [7], in test [8], in test [9], in [10], in [11] and in test [12] was > 100 µM (inactive) in each case. The GI50 in [13] was > 100 µM (inactive); in test [14] it was > 100 µM (inactive); in test [15], > 100 µM (inactive); in [16], > 100 µM (inactive); in test [17] it was 47.8 µM (inactive); in [18], > 100 µM (inactive). Further, the GI50 is 34 µM (inactive) in [19] and > 100 µM (inactive) in test [20].
Regarding `COc1ccc(-n2c(N)c(C#N)[nH]c2=O)cc1`, the GI50 was > 10 µM (inactive) in test [1]; > 10 µM (inactive) in test [2]; 1.79 µM (inactive) in test [3]; > 10 µM (inactive) in test [4]; > 10 µM (inactive) in [5]; > 10 µM (inactive) in test [6]. Moreover, the GI50 in test [7], in test [8], in test [9], in [10], in [11] and in [12] was > 10 µM (inactive) each time. For the same molecule, the GI50 in [13], in test [14], in test [15], in [16], in test [17] and in [18] was > 10 µM (inactive) in each case. For the same molecule, the GI50 in test [19] and in [20] was > 10 µM (inactive) throughout.
In the case of `O=C(O)C1CCCN1Cc1ccc2c(c1)OCO2` (stereo not given), the GI50 in [1], in test [2], in [3], in test [4], in test [5] and in [6] was > 100 µM (inactive) each time. Further, the GI50 in [7], in test [8], in test [9], in test [10], in test [11] and in test [12] was > 100 µM (inactive) in each case. Moreover, the GI50 was 14.5 µM (inactive) in test [13]; > 100 µM (inactive) in [14]; > 100 µM (inactive) in test [15]; > 100 µM (inactive) in [16]; > 100 µM (inactive) in [17]; > 100 µM (inactive) in [18]. Besides, the GI50 in [19] and in [20] was > 100 µM (inactive) in each case.
Regarding `COC12C=C(C)C(CC1)CC2C(=O)O` (stereo not given), the GI50 in [1], in [2], in test [3], in test [4], in test [5] and in test [6] was > 100 µM (inactive) each time. In addition, the GI50 in [7], in test [8], in test [9], in test [10], in test [11] and in [12] was > 100 µM (inactive) each time. Moreover, the GI50 in test [13], in [14], in test [15], in [16], in test [17] and in [18] was > 100 µM (inactive) throughout. Moreover, the GI50 in test [19] and in test [20] was > 100 µM (inactive) in each case.
In the case of `CCCSc1ccc2[nH]c(N3C(=O)/C(=C/c4ccco4)N=C3c3ccccc3)cc2c1`, the GI50 was 40.7 µM (inactive) in test [1]; 16.9 µM (inactive) in test [2]; 27.8 µM (inactive) in test [3]; 21.3 µM (inactive) in [4]; 40.1 µM (inactive) in [5]; 16.7 µM (inactive) in [6]. Further, the GI50 is 33 µM (inactive) in [7]; 23.3 µM (inactive) in test [8]; 18.2 µM (inactive) in [9]; 21.8 µM (inactive) in test [10]; 9.42 µM (inactive) in test [11]; 20.8 µM (inactive) in test [12]. Further, the GI50 in test [13] is 7.26 µM (inactive); in [14] it was > 50 µM (inactive); in test [15] it was 35 µM (inactive); in test [16], 34.8 µM (inactive); in test [17], 22.9 µM (inactive); in test [18] it was > 50 µM (inactive). The GI50 is 13.2 µM (inactive) in [19] and 9.89 µM (inactive) in [20].
Regarding `Cc1ccc(C(=O)Nc2ccc(CP(=O)(O)O)cc2)cc1NC(=O)c1cccc(N)c1`, the GI50 in test [1], in test [2], in test [3], in test [4], in [5] and in test [6] was > 100 µM (inactive) each time. For the same molecule, the GI50 in test [7], in test [8], in [9], in test [10], in test [11] and in test [12] was > 100 µM (inactive) throughout. Besides, the GI50 in test [13], in test [14], in test [15], in test [16], in test [17] and in test [18] was > 100 µM (inactive) in each case. For the same molecule, the GI50 in [19] and in test [20] was > 100 µM (inactive) in each case.
